Measurements taken from PubChem BioAssay AID2060893 (Molecular Pharmacology Branch, DTP, NCI, 2025).

Tested on: K86415-001-R-J1-PDC complex spheroids, viability
Experiment: Anticancer human tumor K86415-001-R-J1-PDC patient-derived lung adenocarcinoma cell line growth inhibition [RAS]
Settings: for IC50: curve of first compound; for viability, T/C: stronger effect = lower value
Outline: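 Multi-cell-type spheroids: tumor cells plus HUVEC endothelial cells and mesenchymal stem cells. RAS-pathway inhibitors were combined with targeted agents, each dosed in half-log steps down from clinical Cmax, or from 10 microM when Cmax was unknown.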

[1] = second compound 0.000949 µM, first compound 0.0316 µM
[2] = second compound 0.000949 µM, first compound 0.1 µM
[3] = second compound 0.000949 µM, first compound 0.316 µM
[4] = second compound 0.000949 µM, first compound 1 µM
[5] = second compound 0.000949 µM, first compound 3.16 µM
[6] = second compound 0.000949 µM, first compound 10 µM
[7] = second compound 0.003 µM, first compound 0.0316 µM
[8] = second compound 0.003 µM, first compound 0.1 µM
[9] = second compound 0.003 µM, first compound 0.316 µM
[10] = second compound 0.003 µM, first compound 1 µM
[11] = second compound 0.003 µM, first compound 3.16 µM
[12] = second compound 0.003 µM, first compound 10 µM
[13] = second compound 0.00949 µM, first compound 0.0316 µM
[14] = second compound 0.00949 µM, first compound 0.1 µM
[15] = second compound 0.00949 µM, first compound 0.316 µM
[16] = second compound 0.00949 µM, first compound 1 µM
[17] = second compound 0.00949 µM, first compound 3.16 µM
[18] = second compound 0.00949 µM, first compound 10 µM
[19] = second compound 0.03 µM, first compound 0.0316 µM
[20] = second compound 0.03 µM, first compound 0.1 µM
[21] = second compound 0.03 µM, first compound 0.316 µM
[22] = second compound 0.03 µM, first compound 1 µM
[23] = second compound 0.03 µM, first compound 3.16 µM
[24] = second compound 0.03 µM, first compound 10 µM
[25] = second compound 0.0949 µM, first compound 0.0316 µM
[26] = second compound 0.0949 µM, first compound 0.1 µM
[27] = second compound 0.0949 µM, first compound 0.316 µM
[28] = second compound 0.0949 µM, first compound 1 µM
[29] = second compound 0.0949 µM, first compound 3.16 µM
[30] = second compound 0.0949 µM, first compound 10 µM
[31] = second compound 0.3 µM, first compound 0.0316 µM
[32] = second compound 0.3 µM, first compound 0.1 µM
[33] = second compound 0.3 µM, first compound 0.316 µM
[34] = second compound 0.3 µM, first compound 1 µM
[35] = second compound 0.3 µM, first compound 3.16 µM
[36] = second compound 0.3 µM, first compound 10 µM
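Note: spheroids exposed to agents for seven days before readout.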

CC1(O)CCCC1n1c(=O)c(C(F)F)cc2cnc(NC3CCN(S(C)(=O)=O)CC3)nc21 (centres undefined) + CCn1c(-c2cc(N3CCN(C)CC3)cnc2C(C)OC)c2c3cc(ccc31)-c1csc(n1)CC(NC(=O)C1CC1C)C(=O)N1CCCC(N1)C(=O)OCC(C)(C)C2 gave an IC50 (second compound 0.000949 µM) of 31.6 nM, an IC50 (second compound 0.003 µM) of under 31.6 nM and an IC50 (second compound 0.00949 µM) of under 31.6 nM. It also gave an IC50 (second compound 0.03 µM) of under 31.6 nM, an IC50 (second compound 0.0949 µM) of under 31.6 nM and an IC50 (second compound 0.3 µM) of under 31.6 nM. For the same molecule, the viability, T/C [1] was 41.9%, the viability, T/C [2] was 36.9% and the viability, T/C [3] was 36.7%. It also gave a viability, T/C [4] of 47%, a viability, T/C [5] of 57.5% and a viability, T/C [6] of 4.99%. For the same molecule, the viability, T/C [7] was 18.4%, the viability, T/C [8] was 19.2% and the viability, T/C [9] was 20%. The viability, T/C [10] was 23.5%, the viability, T/C [11] was 43% and the viability, T/C [12] was 4.43%. The viability, T/C [13] was 10.9%, the viability, T/C [14] was 8.83% and the viability, T/C [15] was 10.7%. It also gave a viability, T/C [16] of 11.5%, a viability, T/C [17] of 20.2% and a viability, T/C [18] of 5.31%. It also gave a viability, T/C [19] of 6.62%, a viability, T/C [20] of 6.19% and a viability, T/C [21] of 6.48%. For the same molecule, the viability, T/C [22] was 10.7%, the viability, T/C [23] was 12.3% and the viability, T/C [24] was 4.06%. For the same molecule, the viability, T/C [25] was 4.05%, the viability, T/C [26] was 4.63% and the viability, T/C [27] was 4.78%. It also gave a viability, T/C [28] of 5.15%, a viability, T/C [29] of 6.85% and a viability, T/C [30] of 5.2%. It also gave a viability, T/C [31] of 3.61%, a viability, T/C [32] of 5.05% and a viability, T/C [33] of 4.72%. The viability, T/C [34] was 5.49%, the viability, T/C [35] was 7.45% and the viability, T/C [36] was 4.66%.
In the case of CCC(CC)c1cc(NC2CCC(N)C2)n2nccc2n1 (centres undefined) + CCn1c(-c2cc(N3CCN(C)CC3)cnc2C(C)OC)c2c3cc(ccc31)-c1csc(n1)CC(NC(=O)C1CC1C)C(=O)N1CCCC(N1)C(=O)OCC(C)(C)C2, the IC50 (second compound 0.000949 µM) is reported as 1180 nM, the IC50 (second compound 0.003 µM) is reported as under 31.6 nM and the IC50 (second compound 0.00949 µM) is reported as under 31.6 nM. For the same molecule, the IC50 (second compound 0.03 µM) was under 31.6 nM, the IC50 (second compound 0.0949 µM) was under 31.6 nM and the IC50 (second compound 0.3 µM) was under 31.6 nM. It also gave a viability, T/C [1] of 46.1%, a viability, T/C [2] of 48.5% and a viability, T/C [3] of 56.8%. For the same molecule, the viability, T/C [4] was 79%, the viability, T/C [5] was 3.84% and the viability, T/C [6] was 4.58%. It also gave a viability, T/C [7] of 25.1%, a viability, T/C [8] of 26.1% and a viability, T/C [9] of 27.8%. For the same molecule, the viability, T/C [10] was 36.2%, the viability, T/C [11] was 4.27% and the viability, T/C [12] was 4.26%. The viability, T/C [13] was 9.9%, the viability, T/C [14] was 11.2% and the viability, T/C [15] was 12.9%. It also gave a viability, T/C [16] of 11.8%, a viability, T/C [17] of 3.06% and a viability, T/C [18] of 3.75%. The viability, T/C [19] was 5.14%, the viability, T/C [20] was 6.25% and the viability, T/C [21] was 7.94%. It also gave a viability, T/C [22] of 6.31%, a viability, T/C [23] of 3.03% and a viability, T/C [24] of 3.65%. It also gave a viability, T/C [25] of 4.23%, a viability, T/C [26] of 3.98% and a viability, T/C [27] of 3.55%. For the same molecule, the viability, T/C [28] was 2.72%, the viability, T/C [29] was 2.97% and the viability, T/C [30] was 3.31%. It also gave a viability, T/C [31] of 2.9%, a viability, T/C [32] of 2.91% and a viability, T/C [33] of 3.27%. For the same molecule, the viability, T/C [34] was 2.5%, the viability, T/C [35] was 4.29% and the viability, T/C [36] was 3.48%.
